Data on 1 molecule can be found in patent publication US4605643A, “Ovine GRF” (The Salk Institute for Biological Studies, priority 1984, dated 1986).

Molecules are shown by their SMILES.

The subject of the experiment is rat pituitary cells. The experiment is described as follows: in vitro release of growth hormone from cultured rat pituitary cells (ir GH by radioimmunoassay), side-by-side with hGRF(1-44)-NH2. Type of experiment: cell-based. The procedure: To determine the effectiveness of the peptide to promote the release of growth hormone, in vitro assays are carried out using synthetic hGRF(1-44)-NH2 in side-by-side comparison with equimolar concentrations of the extracted and purified oGRF(1-44) of Example II. hGRF thus serves as a GRF Reference Standard having a known effectiveness to promote the release of growth hormone from rat pituitary cells. Cultures are used which include cells of rat pituitary glands removed some four to five days previously. Both cultures of a defined standard medium and cultures which are considered optimal for the secretion of growth hormone are used for the comparative testing, in the general manner described in Brazeau, et al. Regulatory Peptides, 1, 255, 1981. Incubation with the substance to be tested is carried out for 3 to 4 hours, and aliquots of the culture medium are removed and processed to measure their contents in immunoreactive GH(ir GH) by a well-characterized radioimmunoassay.

[1] abbreviates: equimolar ratios, incubation 3 to 4 hours, ir GH in culture medium by RIA.
[2] abbreviates: multiple doses factorial design experiments.

For `CC[C@H](C)[C@H](NC(=O)[C@H](C)NC(=O)[C@H](CC(=O)O)NC(=O)[C@H](C)NC(=O)[C@@H](N)Cc1ccc(O)cc1)C(=O)N[C@@H](Cc1ccccc1)C(=O)N[C@H](C(=O)N[C@@H](CC(N)=O)C(=O)N[C@@H](CO)C(=O)N[C@@H](Cc1ccc(O)cc1)C(=O)N[C@@H](CCCNC(=N)N)C(=O)N[C@@H](CCCCN)C(=O)N[C@H](C(=O)N[C@@H](CC(C)C)C(=O)NCC(=O)N[C@@H](CCC(N)=O)C(=O)N[C@@H](CC(C)C)C(=O)N[C@@H](CO)C(=O)N[C@@H](C)C(=O)N[C@@H](CCCNC(=N)N)C(=O)N[C@@H](CCCCN)C(=O)N[C@@H](CC(C)C)C(=O)N[C@@H](CC(C)C)C(=O)N[C@@H](CCC(N)=O)C(=O)N[C@@H](CC(=O)O)C(=O)N[C@H](C(=O)N[C@@H](CCSC)C(=O)N[C@@H](CC(N)=O)C(=O)N[C@@H](CCCNC(=N)N)C(=O)N[C@@H](CCC(N)=O)C(=O)N[C@@H](CCC(N)=O)C(=O)NCC(=O)N[C@@H](CCC(=O)O)C(=O)N[C@@H](CCCNC(=N)N)C(=O)N[C@@H](CC(N)=O)C(=O)N[C@@H](CCC(N)=O)C(=O)N[C@@H](CCC(=O)O)C(=O)N[C@@H](CCC(N)=O)C(=O)NCC(=O)N[C@@H](C)C(=O)N[C@@H](CCCCN)C(=O)N[C@H](C(=O)N[C@@H](CCCNC(=N)N)C(=O)N[C@@H](CC(C)C)C(N)=O)C(C)C)[C@@H](C)CC)[C@@H](C)CC)[C@@H](C)O` [oGRF(1-44)], under setting [1], the “intrinsic biological activity (release of growth hormone) compared with synthetic hGRF(1-44)-NH2” value was “full intrinsic biological activity of the synthetic peptide” and the “potency (release of growth hormone) compared with synthetic hGRF(1-44)-NH2” value is listed as “close to the same potency”. Under setting [2], the “intrinsic activity compared with hGRF(1-44)-NH2” value is “about the same intrinsic activity as hGRF(1-44)-NH2” and the “specific activity relative to hGRF(1-44)-NH2” value is reported as “about 70 % of hGRF(1-44)-NH2”.
